Experimental data: US12129237B2, “Substituted diaminocarboxamide and diaminocarbonitrile pyrimidines, compositions thereof, and methods of treatment therewith” (SIGNAL PHARMACEUTICALS, LLC, priority 2011, dated 2024)

The compounds below were run against T1, JNK1 (Homo sapiens, UniProt P45983) (assay: JNK1 biochemical assays (one or more of: time resolved fluorescence, Z'-LYTE Cascade, radioactive)). Conditions: one or more of the JNK1 biochemical assays; read-out: Act. Level (JNK1 IC50 activity level).
T1 construct: purchased Carna Biosciences
T1 sequence (P45983 whole entry): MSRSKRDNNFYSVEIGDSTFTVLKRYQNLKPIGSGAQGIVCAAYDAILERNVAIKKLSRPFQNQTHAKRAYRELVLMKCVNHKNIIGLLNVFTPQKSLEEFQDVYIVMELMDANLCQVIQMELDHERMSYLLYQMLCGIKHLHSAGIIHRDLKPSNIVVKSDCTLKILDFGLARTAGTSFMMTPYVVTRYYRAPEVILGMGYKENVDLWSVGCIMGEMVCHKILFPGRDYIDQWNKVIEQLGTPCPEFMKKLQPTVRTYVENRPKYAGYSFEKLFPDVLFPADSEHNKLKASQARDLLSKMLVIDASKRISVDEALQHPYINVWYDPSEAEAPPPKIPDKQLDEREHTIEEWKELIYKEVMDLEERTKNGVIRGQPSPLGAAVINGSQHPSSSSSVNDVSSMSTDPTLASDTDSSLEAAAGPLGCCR

SMILES | IC50
NC(=O)c1cnc(N[C@H]2CC[C@H](O)CC2)nc1NC12CCC(C1)C2 [Example 477, 4-(bicyclo[2.1.1]hexan-1-ylamino)-2-((1r,4r)-4-hydroxycyclohexylamino)pyrimidine-5-carboxamide] | < 200 nM
CCO[C@H]1CC[C@H](Nc2ncc(C(N)=O)c(NC3(CC)CCCCC3)n2)CC1 [Example 478, 2-((1r,4r)-4-ethoxycyclohexylamino)-4-(1-ethylcyclohexylamino)pyrimidine-5-carboxamide] | < 200 nM
CC(C)(Nc1nc(NC23CCC(O)(CC2)CC3)ncc1C(N)=O)C1CC1 [Example 479, 4-(2-cyclopropylpropan-2-ylamino)-2-(4-hydroxybicyclo[2.2.2]octan-1-ylamino)pyrimidine-5-carboxamide] | < 200 nM
CN(C)C(=O)[C@H]1CC[C@H](Nc2ncc(C(N)=O)c(NC(C)(C)C3CC3)n2)CC1 [Example 480, 4-(2-cyclopropylpropan-2-ylamino)-2-((1r,4r)-4-(dimethylcarbamoyl)cyclohexylamino)pyrimidine-5-carboxamide] | < 200 nM
CC(C)(Nc1nc(N[C@H]2CC[C@H](OC(F)F)CC2)ncc1C(N)=O)C1CC1 [Example 481, 4-(2-cyclopropylpropan-2-ylamino)-2-((1r,4r)-4-(difluoromethoxy)cyclohexylamino)pyrimidine-5-carboxamide] | < 200 nM
CC(C)(Nc1nc(N[C@H]2CC[C@H](OCC(F)(F)F)CC2)ncc1C(N)=O)C1CC1 [Example 482, 4-(2-cyclopropylpropan-2-ylamino)-2-((1r,4r)-4-(2,2,2-trifluoroethoxy)cyclohexylamino)pyrimidine-5-carboxamide] | < 200 nM
CC(C)(Nc1nc(N[C@H]2CC[C@H](OC3CC3)CC2)ncc1C(N)=O)C1CC1 [Example 483, 2-((1r,4r)-4-cyclopropoxycyclohexylamino)-4-(2-cyclopropylpropan-2-ylamino)pyrimidine-5-carboxamide] | < 200 nM
NC(=O)c1cnc(N[C@H]2CC[C@H](OC3CC3)CC2)nc1NC1C2CC1C2 (stereo partly shown) [Example 486, 4-(bicyclo[1.1.1]pentan-2-ylamino)-2-((1r,4r)-4-cyclopropoxycyclohexylamino)pyrimidine-5-carboxamide] | < 200 nM
NC(=O)c1cnc(N[C@H]2CC[C@H](OC3CC3)CC2)nc1NC12CCC(C1)C2 [Example 487, 4-(bicyclo[2.1.1]hexan-1-ylamino)-2-((1r,4r)-4-cyclopropoxycyclohexylamino)pyrimidine-5-carboxamide] | < 200 nM
CCO[C@H]1CC[C@H](Nc2ncc(C(N)=O)c(NC3(C)CCCC3)n2)CC1 [Example 488, 2-((1r,4r)-4-ethoxycyclohexylamino)-4-(1-methylcyclopentylamino)pyrimidine-5-carboxamide] | < 200 nM
C[C@@H]1CC[C@@H](Nc2nc(NC34CC(C(C)(C)C)(C3)C4)ncc2C(N)=O)C[C@H]1O [Example 489, 2-(3-tert-butylbicyclo[1.1.1]pentan-1-ylamino)-4-((1R,3R,4R)-3-hydroxy-4-methylcyclohexylamino)pyrimidine-5-carboxamide] | < 200 nM
CC12CC(Nc3nc(NC45CCC(O)(CC4)C5)ncc3C(N)=O)(C1)C2 [Example 490, 2-(4-hydroxybicyclo[2.2.1]heptan-1-ylamino)-4-(3-methylbicyclo[1.1.1]pentan-1-ylamino)pyrimidine-5-carboxamide] | < 200 nM
C[C@@H]1CC[C@@H](Nc2nc(N[C@H]3CC[C@H](OC4CC4)CC3)ncc2C(N)=O)C[C@H]1O [Example 492, 2-((1r,4R)-4-cyclopropoxycyclohexylamino)-4-((1R,3R,4R)-3-hydroxy-4-methylcyclohexylamino)pyrimidine-5-carboxamide] | < 200 nM
CC(C)(C)C12CC(Nc3nc(N[C@H]4CC[C@H](O)CC4)ncc3C(N)=O)(C1)C2 [Example 493, 4-(3-tert-butylbicyclo[1.1.1]pentan-1-ylamino)-2-((1r,4r)-4-hydroxycyclohexylamino)pyrimidine-5-carboxamide] | < 200 nM
CCNc1ncc(C(N)=O)c(N[C@@H]2CC[C@@H](C)[C@H](O)C2)n1 [Example 494, 2-(ethylamino)-4-((1R,3R,4R)-3-hydroxy-4-methylcyclohexylamino)pyrimidine-5-carboxamide] | < 200 nM
CC(C)CNc1ncc(C(N)=O)c(N[C@@H]2CCC[C@H](O)C2)n1 [Example 495, 4-((1R,3S)-3-hydroxycyclohexylamino)-2-(isobutylamino)pyrimidine-5-carboxamide] | < 200 nM
CC[C@H](C)Nc1ncc(C(N)=O)c(N[C@@H]2CCC[C@H](O)C2)n1 [Example 496, 2-(sec-butylamino)-4-((1R,3S)-3-hydroxycyclohexylamino)pyrimidine-5-carboxamide] | < 200 nM
CC[C@@H](C)Nc1ncc(C(N)=O)c(N[C@@H]2CCC[C@H](O)C2)n1 [Example 497, 2-(sec-butylamino)-4-((1R,3S)-3-hydroxycyclohexylamino)pyrimidine-5-carboxamide] | < 200 nM
CCC(CC)Nc1ncc(C(N)=O)c(N[C@@H]2CCC[C@H](O)C2)n1 [Example 498, 4-((1R,3S)-3-hydroxycyclohexylamino)-2-(pentan-3-ylamino)pyrimidine-5-carboxamide] | < 200 nM

Same assay, conditions: tested in one or more of the JNK1 biochemical assays; read-out: Act. Level (JNK1 biochemical assay IC50 activity level)

SMILES | IC50
CC(C)Nc1nc(N[C@H]2CC[C@H](OCC(F)(F)F)CC2)ncc1C(N)=O [Example A-1, 4-(isopropylamino)-2-((1r,4r)-4-(2,2,2-trifluoroethoxy)cyclohexylamino)pyrimidine-5-carboxamide] | < 200 nM
CC(C)Nc1nc(NC2CCC(F)(F)CC2)ncc1C(N)=O [Example A-3, 2-(4,4-difluorocyclohexylamino)-4-(isopropylamino)pyrimidine-5-carboxamide] | < 200 nM
NC(=O)c1cnc(N[C@H]2CC[C@H](OC(F)F)CC2)nc1N[C@@H]1CCC[C@H]1O [Example A-4, 2-((1r,4R)-4-(difluoromethoxy)cyclohexylamino)-4-((1R,2R)-2-hydroxycyclopentylamino)pyrimidine-5-carboxamide] | < 200 nM
NC(=O)c1cnc(NC2CCC(F)(F)CC2)nc1N[C@@H]1CCC[C@H]1O [Example A-5, 2-(4,4-difluorocyclohexylamino)-4-((1R,2R)-2-hydroxycyclopentylamino)pyrimidine-5-carboxamide] | < 200 nM
CC(C)Nc1nc(N[C@H]2CC[C@H](C(C)(C)O)CC2)ncc1C(N)=O [Example A-6, 2-((1r,4r)-4-(2-hydroxypropan-2-yl)cyclohexylamino)-4-(isopropylamino)pyrimidine-5-carboxamide] | < 200 nM
NC(=O)c1cnc(NC2CCOCC2)nc1N[C@@H]1CCC[C@H]1O [Example A-7, 4-((1R,2R)-2-hydroxycyclopentylamino)-2-(tetrahydro-2H-pyran-4-ylamino)pyrimidine-5-carboxamide] | < 200 nM
CC(C)Nc1nc(N[C@H]2CC[C@H](C(=O)N(C)C)CC2)ncc1C(N)=O [Example A-10, 2-((1r,4r)-4-(dimethylcarbamoyl)cyclohexylamino)-4-(isopropylamino)pyrimidine-5-carboxamide] | < 200 nM
CC(C)Nc1nc(NC2CCC3(CC2)OCCO3)ncc1C(N)=O [Example A-11, 2-(1,4-dioxaspiro[4.5]decan-8-ylamino)-4-(isopropylamino)pyrimidine-5-carboxamide] | 200 to 800 nM
CC(C)Nc1nc(N[C@H]2CC[C@H](CO)CC2)ncc1C(N)=O [Example A-12, 2-((1r,4r)-4-(hydroxymethyl)cyclohexylamino)-4-(isopropylamino)pyrimidine-5-carboxamide] | < 200 nM
CO[C@H]1CC[C@H](Nc2ncc(C(N)=O)c(NC3COCC(O)C3)n2)CC1 (stereo partly shown) [Example A-13, 4-(5-hydroxytetrahydro-2H-pyran-3-ylamino)-2-((1r,4r)-4-methoxycyclohexylamino)pyrimidine-5-carboxamide] | < 200 nM
C[C@]1(O)CC[C@H](Nc2ncc(C(N)=O)c(N[C@@H]3CCC[C@H](O)C3)n2)CC1 [Example A-22, 2-((1r,4R)-4-hydroxy-4-methylcyclohexylamino)-4-((1R,3S)-3-hydroxycyclohexylamino)pyrimidine-5-carboxamide] | < 200 nM
CO[C@H]1CC[C@H](Nc2ncc(C(N)=O)c(N[C@H]3CCNC(=O)C3)n2)CC1 [Example A-25, 2-((1r,4S)-4-methoxycyclohexylamino)-4-((S)-2-oxopiperidin-4-ylamino)pyrimidine-5-carboxamide] | < 200 nM
CO[C@H]1CC[C@H](Nc2ncc(C(N)=O)c(N[C@@H]3CCNC(=O)C3)n2)CC1 [Example A-26, 2-((1r,4R)-4-methoxycyclohexylamino)-4-((R)-2-oxopiperidin-4-ylamino)pyrimidine-5-carboxamide] | 200 to 800 nM
CN(C)C(=O)[C@H]1CC[C@H](Nc2ncc(C(N)=O)c(N[C@@H]3CCC[C@H](O)C3)n2)CC1 [Example A-27, 2-((1r,4R)-4-(dimethylcarbamoyl)cyclohexylamino)-4-((1R,3S)-3-hydroxycyclohexylamino)pyrimidine-5-carboxamide] | < 200 nM
CO[C@H]1CC[C@H](Nc2ncc(C(N)=O)c(N[C@H]3CC[C@H](O)CC3)n2)CC1 [Example A-34, 4-((1r,4r)-4-hydroxycyclohexylamino)-2-((1r,4r)-4-methoxycyclohexylamino)pyrimidine-5-carboxamide] | < 200 nM
CO[C@H]1CC[C@H](Nc2ncc(C(N)=O)c(NC(C)(C)CCO)n2)CC1 [Example A-35, 4-(4-hydroxy-2-methylbutan-2-ylamino)-2-((1r,4r)-4-methoxycyclohexylamino)pyrimidine-5-carboxamide] | < 200 nM
CO[C@H]1CC[C@H](Nc2ncc(C(N)=O)c(N[C@@H]3CCC[C@@H]3CO)n2)CC1 [Example A-36, 4-((1R,2S)-2-(hydroxymethyl)cyclopentylamino)-2-((1r,4R)-4-methoxycyclohexylamino)pyrimidine-5-carboxamide] | < 200 nM
CO[C@H]1CC[C@H](Nc2ncc(C(N)=O)c(N[C@H]3CCC[C@H]3CO)n2)CC1 [Example A-37, 4-((1S,2R)-2-(hydroxymethyl)cyclopentylamino)-2-((1r,4S)-4-methoxycyclohexylamino)pyrimidine-5-carboxamide] | 200 to 800 nM
